Source: patent publication US20220387362A1, “COMPOSITIONS COMPRISING A DHODH INHIBITOR FOR THE TREATMENT OF ACUTE MYELOID LEUKEMIA” (RHIZEN PHARMACEUTICALS AG, priority 2019, published 2022)
Read-outs that look alike come from different tables or passages of the source.

Experiments:
[1] = in combination with cyclosporine; cited from earlier work
[2] = tested on: AML cell line THP-1; experiment: Anti-proliferative effect in combination with gilteritinib (MTT assay); assay type: cell-based
Procedure: (§1) Compound A (at 3 μM) and Gilteritinib (0.25 μM) was tested in AML cell line THP-1. Cells were plated in 96-well plates and incubated with desired concentrations of Compound A for 72 h. At the end of the incubation period, MTT ((3-(4,5-dimethylthiazol-2-yl)-2,5-diphenyltetrazolium bromide)) was added. The plates were placed on a shaker for 5 min to mix the formazan and the optical density at 560 nm was measured on a spectrophotometer. Data were plotted using Graphpad prism for calculation of the percentage inhibition to determine the effect of Compound A as a single agent or in combination with gilteritinib.

[3] = tested on: AML cell line U937; experiment: as above; assay type: cell-based
Procedure: as §1, with “gilteritinib (1.5” for “Gilteritinib (0.25”, “U937.” for “THP-1.”

[4] = tested on: CD11b expression in MV411; experiment: CD11b cell surface expression (flow cytometry); assay type: cell-based; settings: MV411, 3 μM, 72 hours
Procedure: (§2) Cells were plated in complete media at pre-determined density in 6-well plates and the cells were treated with Compound A 96 hours for THP-1 cell lines and 72 hours for MV411 cell lines) in the presence or absence of uridine. The cells were stained with CD11b Antibody PE according to manufacturer's protocol (CD11b Monoclonal Antibody (ICRF44), PE, eBioscience) and the cells were acquired and analysed by flow cytometry (Guava Easycyte).

[5] = tested on: CD11b expression in THP-1; experiment: CD11b cell surface expression (flow cytometry); assay type: cell-based; settings: THP-1, 5 μM, 96 hours
Procedure: as §2

[6] = tested on: AML cell lines (U937, HL-60, THP-1, KG-1 and MV411); experiment: Anti-proliferative effect across panel of AML cell lines (MTT assay); assay type: cell-based; settings: U937, HL-60, THP-1, KG-1, MV411; 72 h; read-out: GI50 range over all AML cell lines tested
Procedure: (§3) Compound A was tested across a panel of AML cell lines (U937, HL-60, THP-1, KG-1 and MV411). Cells were plated in 96-well plates and incubated with desired concentrations of Compound A for 72 hours (h). At the end of the incubation period, MTT ((3-(4,5-dimethylthiazol-2-yl)-2,5-diphenyltetrazolium bromide)) was added. The plates were placed on a shaker for 5 min to mix the formazan and the optical density at 560 nm was measured on a spectrophotometer. Data were plotted using Graphpad prism for calculation of the GI50 concentrations.

[7] = tested on: MV411 xenograft; experiment: MV411 mouse xenograft model; assay type: in vivo
Procedure: The effect of Compound A was determined in a MV411 mouse xenograft model. Briefly, 5×10^6 cells were injected into the right flank region by Subcutaneous administration under sterile condition. The oral administration of Compound (A) at 30 mg/kg/BID for 21 days. The tumors were measured using a calliper in two dimensions, length (a) and width (b). Tumor volumes were estimated from measurements of the two diameters of the individual tumors as follows: Tumor Volume (mm3)=(a×b2)/2. At the end of the study period, animals were sacrificed and the tumors harvested.

[8] = tested on: CD11b mRNA expression in THP-1; experiment: CD11b mRNA expression in THP-1 cell lines (Real-Time PCR); assay type: cell-based; settings: THP-1, 3 μM, 72 hours
Procedure: THP-1 cells were plated in complete media at pre-determined density in 6-well plates and the cells were treated with Compound A for 72 hours. mRNA was isolated using TRI reagent according to the manufacturer's protocol (TRI Reagent from Sigma). cDNA was synthesized using cDNA Synthesis kit according to manufacturer's protocol (First Strand cDNA Synthesis kit) and Real-Time PCR was performed. Data was calculated using delta delta Ct method. Fold change in mRNA expression was plotted using GraphPad Prism (Version 5.02)

[9] = tested on: THP-1; experiment: Anti-proliferative effect in AML cell lines (MTT assay); assay type: cell-based; settings: Homo sapiens, THP-1, 72 h
Procedure: as §3

[10] = tested on: MV411; experiment: as above; assay type: cell-based; settings: Homo sapiens, MV4-11, MV411, 72 h
Procedure: as §3

[11] = tested on: KG-1; experiment: as above; assay type: cell-based; settings: Homo sapiens, KG-1, 72 h
Procedure: as §3

[12] = tested on: U937; experiment: as above; assay type: cell-based; settings: Homo sapiens, U-937, U937, 72 h
Procedure: as §3

[13] = tested on: HL60; experiment: as above; assay type: cell-based; settings: Homo sapiens, HL-60, HL60, 72 h
Procedure: as §3

[14] = tested on: AML cell lines (U937, HL-60, THP-1 and MV411); experiment: Anti-proliferative effect with uridine rescue, AML cell lines together (MTT assay); assay type: cell-based
Procedure: as §3, with “in the absence” for “across a panel”, “Uridine” for “AML cell lines”, “THP-1” for “THP-1, KG-1”, “MV411 cell lines) or in the presence of Uridine (100 μM for U937, HL-60 and MV411 and 300 μM for THP-1).” for “MV411).”, “h.” for “hours (h).”

[15] = tested on: THP-1; experiment: Anti-proliferative effect with uridine rescue (MTT assay); assay type: cell-based; settings: Homo sapiens, 72 h
Procedure: as §3, with “in the absence” for “across a panel”, “Uridine” for “AML cell lines”, “THP-1” for “THP-1, KG-1”, “MV411 cell lines) or in the presence of Uridine (100 μM for U937, HL-60 and MV411 and 300 μM for THP-1).” for “MV411).”, “h.” for “hours (h).”

[16] = tested on: MV411; experiment: as above; assay type: cell-based; settings: Homo sapiens, MV4-11, 72 h
Procedure: as §3, with “in the absence” for “across a panel”, “Uridine” for “AML cell lines”, “THP-1” for “THP-1, KG-1”, “MV411 cell lines) or in the presence of Uridine (100 μM for U937, HL-60 and MV411 and 300 μM for THP-1).” for “MV411).”, “h.” for “hours (h).”

[17] = tested on: HL-60; experiment: as above; assay type: cell-based; settings: Homo sapiens, 72 h
Procedure: as §3, with “in the absence” for “across a panel”, “Uridine” for “AML cell lines”, “THP-1” for “THP-1, KG-1”, “MV411 cell lines) or in the presence of Uridine (100 μM for U937, HL-60 and MV411 and 300 μM for THP-1).” for “MV411).”, “h.” for “hours (h).”

[18] = tested on: U937; experiment: as above; assay type: cell-based; settings: Homo sapiens, U-937, 72 h
Procedure: as §3, with “in the absence” for “across a panel”, “Uridine” for “AML cell lines”, “THP-1” for “THP-1, KG-1”, “MV411 cell lines) or in the presence of Uridine (100 μM for U937, HL-60 and MV411 and 300 μM for THP-1).” for “MV411).”, “h.” for “hours (h).”

[19] = patients; cited from earlier work
[20] = Homo sapiens, THP-1, 72 h, Compound A 3 μM, Gilteritinib 0.25 μM, read-out: % inhibition of cell growth
[21] = Homo sapiens, U-937, U937, 72 h, Compound A 3 μM, gilteritinib 1.5 μM, read-out: % inhibition of cell growth

Cc1c(-c2ccc(-c3ccccc3F)cc2)nc2ccc(F)cc2c1C(=O)O [brequinar]
toxic effects on oral administration [1]: toxic effects, including leukocytopenia and thrombocytopenia

CCc1nc(C(N)=O)c(Nc2ccc(N3CCC(N4CCN(C)CC4)CC3)c(OC)c2)nc1NC1CCOCC1 [Gilteritinib, reference compound]
inhibition at 0.25 µM [2, 20]: 40.1% | inhibition at 1.5 µM [3, 21]: 41.7%

CCCCOc1cccc(-c2cc(F)c(NC(=O)c3ccccc3C(=O)O)c(Cl)c2)c1 [Compound A, 2-(3′-butoxy-3-chloro-5-fluorobiphenyl-4-ylcarbamoyl)benzoic acid]
CD11b cell surface expression, % of cell population [4]: 35% | CD11b cell surface expression after addition of uridine ([5]; with uridine): 15% | CD11b cell surface expression, % of cell population ([5]; without uridine): 40% | GI50 [6]: 2.4 to 7.6 µM | melting point: 128 to 130 °C | tumor growth inhibition ([7]; Compound A 30 mg/kg/BID oral 21 days, combination with cytarabine 20 mg/Kg): 37% | adverse events or body weight changes ([7]; throughout the study period, MV411 xenograft mice): No adverse events or body weight changes were observed | induction of CD11b gene expression [8]: 80 fold | inhibition at 3 µM [2, 20]: 35.8% | effect on activity of gilteritinib (cell growth inhibition) ([2]; THP-1, p<0.05): potentiated | GI50 [9]: 2.5 µM | GI50 [10]: 2.5 µM | GI50 [11]: 7.6 µM | GI50 [12]: 2.4 µM | GI50 [13]: 3.5 µM | GI50 ([14]; 100 μM or 300 μM uridine, read-out: GI50 over AML cell lines with addition of uridine): > 10 µM | GI50 ([14]; U937, HL-60, THP-1, MV411, no uridine, read-out: GI50 range over AML cell lines, without uridine): 2 to 3.2 µM | inhibition at 3 µM [3, 21]: 41.4% | effect on activity of gilteritinib (cell growth inhibition) ([3]; U937, p<0.05): potentiated | GI50 ([15]; THP-1, 300 μM uridine): > 10 µM | GI50 ([15]; THP-1, absence of uridine): 2 µM | GI50 ([16]; MV411, 100 μM uridine): > 10 µM | GI50 ([16]; MV411, absence of uridine): 2.6 µM | GI50 ([17]; HL-60, 100 μM uridine): > 10 µM | GI50 ([17]; HL-60, absence of uridine): 3.6 µM | GI50 ([18]; U937, 100 μM uridine): > 10 µM | GI50 ([18]; U937, absence of uridine): 3.2 µM

Cc1oncc1C(=O)Nc1ccc(C(F)(F)F)cc1 [leflunomide]
half-life time [19]: approximately 2 weeks
